Test results taken from ChEMBL document CHEMBL5465560, “Selectivity Literature for EUbOPEN Chemogenomic Library” (2024).

Experiments:
[1] = target: Cyclin-dependent kinase 14/Cyclin-Y (Homo sapiens) (UniProt O94921+Q8ND76); assay: Selectivity interaction (LanthaScreen Eu Kinase Binding Assay) EUB0001632a CDK14; type: protein-complex assay; settings: at 10 µM
[2] = system: Epidermal growth factor receptor (Homo sapiens), P00533 [G719C]; assay: (§1) Selectivity interaction (KinomeScan (DiscoverX)) EUB0000666a EGFR; settings: at 10 µM
[3] = system: Epidermal growth factor receptor (Homo sapiens), P00533 [G719S]; assay: as §1; settings: at 10 µM
[4] = system: Epidermal growth factor receptor (Homo sapiens), P00533 [L858R,T790M]; assay: as §1; settings: at 10 µM
[5] = system: Epidermal growth factor receptor (Homo sapiens), P00533 [L858R]; assay: as §1; settings: at 10 µM
[6] = system: Epidermal growth factor receptor (Homo sapiens), P00533 [T790M]; assay: as §1; settings: at 10 µM
[7] = system: Epidermal growth factor receptor (Homo sapiens), P00533 [UNDEFINED MUTATION]; assay: as §1; settings: at 10 µM
[8] = target: Glycogen synthase kinase-3 alpha (Homo sapiens, UniProt P49840); assay: Selectivity interaction (KinomeScan (DiscoverX)) EUB0000607a GSK3A; settings: at 10 µM
[9] = target: Cyclin-dependent kinase 14 (Homo sapiens) (UniProt O94921); assay: Selectivity interaction (ActivX KiNativ screen (kinase selectivity in THP-1 cell lysates)) EUB0000639a CDK14; type: subcellular; settings: lysate, at 0.2 µM
SRSF protein kinase 1 = SRSF protein kinase 1 (Homo sapiens, UniProt Q96SB4); assay: Selectivity interaction (Kinase panel (Invitrogen)) EUB0000639a SRPK1; settings: at 200 nM
[10] = target: Prostaglandin G/H synthase 1 (Homo sapiens) (UniProt P23219); assay: Selectivity interaction (Panel of non-epigenetic targets (kinases, GPCRs, ion channels, and transporters, Eurofins) ) EUB0000271b PTGS1; settings: at 1 µM
[11] = target: Mitogen-activated protein kinase 3 (Homo sapiens, UniProt P27361); assay: Selectivity interaction (KinomeScan (DiscoverX)) EUB0000695a MAPK3; settings: at 100 nM
[12] = target: Maternal embryonic leucine zipper kinase (Homo sapiens) (UniProt Q14680); assay: Selectivity interaction (Kinase panel (DSF assay)) EUB0001559a MELK
[13] = target: T1, Myosin light chain kinase family member 4 (Homo sapiens) (UniProt Q86YV6); settings: at 10 µM
T1 sequence (whole entry): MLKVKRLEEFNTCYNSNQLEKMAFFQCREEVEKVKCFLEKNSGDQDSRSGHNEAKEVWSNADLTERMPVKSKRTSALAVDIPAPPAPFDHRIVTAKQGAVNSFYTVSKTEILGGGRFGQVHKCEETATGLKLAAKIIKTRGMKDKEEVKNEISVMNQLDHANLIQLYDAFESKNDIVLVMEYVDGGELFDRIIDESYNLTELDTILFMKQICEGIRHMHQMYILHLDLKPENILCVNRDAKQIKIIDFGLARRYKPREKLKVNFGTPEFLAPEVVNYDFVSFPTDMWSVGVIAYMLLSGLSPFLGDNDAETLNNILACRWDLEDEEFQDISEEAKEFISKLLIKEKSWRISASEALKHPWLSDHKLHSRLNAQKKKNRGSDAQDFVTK

[14] = target: T2, Myosin-IIIb (Homo sapiens) (UniProt Q8WXR4); assay: Selectivity interaction (KinomeScan (DiscoverX)) EUB0000229b MYO3B; settings: at 10 µM
T2 sequence (whole entry): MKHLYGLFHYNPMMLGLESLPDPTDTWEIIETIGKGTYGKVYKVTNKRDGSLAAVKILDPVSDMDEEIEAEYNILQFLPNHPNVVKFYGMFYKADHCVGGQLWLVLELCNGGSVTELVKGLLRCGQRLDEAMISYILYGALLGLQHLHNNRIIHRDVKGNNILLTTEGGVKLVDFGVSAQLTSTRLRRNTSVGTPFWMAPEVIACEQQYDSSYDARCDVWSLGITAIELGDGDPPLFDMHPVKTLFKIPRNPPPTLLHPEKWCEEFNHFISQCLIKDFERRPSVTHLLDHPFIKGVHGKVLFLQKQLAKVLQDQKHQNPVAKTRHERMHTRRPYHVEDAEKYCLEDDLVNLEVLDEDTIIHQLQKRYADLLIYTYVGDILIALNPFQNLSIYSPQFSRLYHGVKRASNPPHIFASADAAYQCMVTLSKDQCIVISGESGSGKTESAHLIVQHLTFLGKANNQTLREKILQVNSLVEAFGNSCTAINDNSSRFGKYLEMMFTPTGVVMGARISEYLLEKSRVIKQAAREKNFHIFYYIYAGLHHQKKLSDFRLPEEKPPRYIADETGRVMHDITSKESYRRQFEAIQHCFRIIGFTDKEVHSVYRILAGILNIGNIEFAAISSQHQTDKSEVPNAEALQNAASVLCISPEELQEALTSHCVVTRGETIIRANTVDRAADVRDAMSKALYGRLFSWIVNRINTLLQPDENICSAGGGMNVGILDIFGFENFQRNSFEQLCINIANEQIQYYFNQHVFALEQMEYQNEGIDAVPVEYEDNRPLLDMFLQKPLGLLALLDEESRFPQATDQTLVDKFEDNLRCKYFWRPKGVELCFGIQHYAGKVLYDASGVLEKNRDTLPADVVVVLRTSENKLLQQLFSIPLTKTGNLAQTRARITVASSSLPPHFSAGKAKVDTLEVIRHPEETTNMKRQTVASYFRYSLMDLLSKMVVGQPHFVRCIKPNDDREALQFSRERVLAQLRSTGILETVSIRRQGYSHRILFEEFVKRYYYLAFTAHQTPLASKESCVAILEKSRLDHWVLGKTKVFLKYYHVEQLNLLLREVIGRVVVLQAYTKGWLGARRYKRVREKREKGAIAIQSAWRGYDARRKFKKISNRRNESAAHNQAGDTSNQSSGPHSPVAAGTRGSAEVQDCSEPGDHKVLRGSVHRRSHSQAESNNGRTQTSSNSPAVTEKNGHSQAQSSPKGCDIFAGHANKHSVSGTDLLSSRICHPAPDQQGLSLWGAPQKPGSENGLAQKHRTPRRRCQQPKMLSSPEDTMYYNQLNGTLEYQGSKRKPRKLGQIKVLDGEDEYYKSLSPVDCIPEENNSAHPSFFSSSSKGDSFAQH

[15] = target: Myosin light chain kinase 2, skeletal/cardiac muscle (Homo sapiens) (UniProt Q9H1R3); assay: Selectivity interaction (KinomeScan (DiscoverX)) EUB0000618a MYLK2; settings: at 10 µM
Myosin light chain kinase 2, skeletal/cardiac muscle (Homo sapiens), sequence (Q9H1R3 whole entry): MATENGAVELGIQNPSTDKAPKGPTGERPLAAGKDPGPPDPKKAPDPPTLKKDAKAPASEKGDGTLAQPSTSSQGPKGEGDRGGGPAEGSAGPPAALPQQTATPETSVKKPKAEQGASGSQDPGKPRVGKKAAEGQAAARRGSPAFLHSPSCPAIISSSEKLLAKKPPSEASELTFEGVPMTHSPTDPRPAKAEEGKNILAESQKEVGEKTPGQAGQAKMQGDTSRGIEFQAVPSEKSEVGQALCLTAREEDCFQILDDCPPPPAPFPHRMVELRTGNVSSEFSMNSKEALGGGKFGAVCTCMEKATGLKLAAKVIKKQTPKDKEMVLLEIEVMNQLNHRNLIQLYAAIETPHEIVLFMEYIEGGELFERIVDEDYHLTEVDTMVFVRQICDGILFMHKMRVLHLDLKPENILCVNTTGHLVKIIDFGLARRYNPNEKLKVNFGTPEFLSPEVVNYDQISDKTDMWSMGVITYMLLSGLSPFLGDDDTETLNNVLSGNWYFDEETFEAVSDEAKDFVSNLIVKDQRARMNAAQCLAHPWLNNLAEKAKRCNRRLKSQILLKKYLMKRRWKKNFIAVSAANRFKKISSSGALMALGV

Epidermal growth factor receptor (Homo sapiens), P00533 [L858R], sequence (P00533 whole entry L858R): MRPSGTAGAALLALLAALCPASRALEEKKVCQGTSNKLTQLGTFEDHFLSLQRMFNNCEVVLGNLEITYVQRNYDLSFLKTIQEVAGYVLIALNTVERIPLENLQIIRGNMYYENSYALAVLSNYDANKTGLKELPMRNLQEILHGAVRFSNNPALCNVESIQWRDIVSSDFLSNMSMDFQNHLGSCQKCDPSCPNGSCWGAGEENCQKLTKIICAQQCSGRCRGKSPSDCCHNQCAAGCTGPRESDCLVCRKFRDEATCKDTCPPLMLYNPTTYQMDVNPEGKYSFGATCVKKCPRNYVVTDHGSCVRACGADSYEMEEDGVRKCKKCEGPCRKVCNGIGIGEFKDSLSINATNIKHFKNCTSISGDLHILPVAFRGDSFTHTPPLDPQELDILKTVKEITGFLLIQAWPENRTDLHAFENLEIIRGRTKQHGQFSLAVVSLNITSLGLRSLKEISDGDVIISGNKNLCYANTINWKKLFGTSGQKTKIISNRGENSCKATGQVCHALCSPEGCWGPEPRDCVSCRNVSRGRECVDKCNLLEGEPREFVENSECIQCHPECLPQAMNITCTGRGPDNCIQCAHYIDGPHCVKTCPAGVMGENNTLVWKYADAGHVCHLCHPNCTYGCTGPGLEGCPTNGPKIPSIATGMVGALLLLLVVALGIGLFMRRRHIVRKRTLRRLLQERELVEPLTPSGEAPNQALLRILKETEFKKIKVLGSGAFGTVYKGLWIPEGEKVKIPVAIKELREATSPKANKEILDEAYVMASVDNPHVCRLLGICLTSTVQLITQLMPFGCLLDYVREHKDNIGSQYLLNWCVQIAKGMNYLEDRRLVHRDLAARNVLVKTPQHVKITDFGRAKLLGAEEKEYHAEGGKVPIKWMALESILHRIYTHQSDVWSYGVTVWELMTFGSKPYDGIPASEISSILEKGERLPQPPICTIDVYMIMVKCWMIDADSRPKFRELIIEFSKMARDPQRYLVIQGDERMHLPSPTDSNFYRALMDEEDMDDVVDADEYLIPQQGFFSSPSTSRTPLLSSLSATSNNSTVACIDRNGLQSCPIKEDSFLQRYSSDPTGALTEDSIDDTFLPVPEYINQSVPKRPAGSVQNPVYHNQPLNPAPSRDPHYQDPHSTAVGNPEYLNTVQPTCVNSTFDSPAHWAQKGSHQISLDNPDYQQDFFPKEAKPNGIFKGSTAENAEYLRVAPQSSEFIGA
Prostaglandin G/H synthase 1 (Homo sapiens), sequence (P23219 whole entry): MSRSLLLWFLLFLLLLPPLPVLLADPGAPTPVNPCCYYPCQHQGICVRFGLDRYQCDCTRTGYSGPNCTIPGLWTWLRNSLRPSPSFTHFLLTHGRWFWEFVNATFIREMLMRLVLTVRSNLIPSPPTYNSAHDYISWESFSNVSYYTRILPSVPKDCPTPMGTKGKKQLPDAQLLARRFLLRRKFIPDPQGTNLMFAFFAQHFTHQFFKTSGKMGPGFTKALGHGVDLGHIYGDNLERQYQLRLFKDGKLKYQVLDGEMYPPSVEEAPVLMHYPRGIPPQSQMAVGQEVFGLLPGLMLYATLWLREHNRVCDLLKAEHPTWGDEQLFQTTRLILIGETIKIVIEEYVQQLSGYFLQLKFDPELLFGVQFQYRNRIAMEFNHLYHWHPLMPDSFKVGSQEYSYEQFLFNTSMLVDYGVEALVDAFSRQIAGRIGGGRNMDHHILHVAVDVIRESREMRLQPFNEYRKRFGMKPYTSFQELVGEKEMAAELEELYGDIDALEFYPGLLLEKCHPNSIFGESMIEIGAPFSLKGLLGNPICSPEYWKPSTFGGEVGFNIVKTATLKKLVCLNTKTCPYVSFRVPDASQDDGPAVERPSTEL
Epidermal growth factor receptor (Homo sapiens), P00533 [G719C], sequence (P00533 whole entry G719C): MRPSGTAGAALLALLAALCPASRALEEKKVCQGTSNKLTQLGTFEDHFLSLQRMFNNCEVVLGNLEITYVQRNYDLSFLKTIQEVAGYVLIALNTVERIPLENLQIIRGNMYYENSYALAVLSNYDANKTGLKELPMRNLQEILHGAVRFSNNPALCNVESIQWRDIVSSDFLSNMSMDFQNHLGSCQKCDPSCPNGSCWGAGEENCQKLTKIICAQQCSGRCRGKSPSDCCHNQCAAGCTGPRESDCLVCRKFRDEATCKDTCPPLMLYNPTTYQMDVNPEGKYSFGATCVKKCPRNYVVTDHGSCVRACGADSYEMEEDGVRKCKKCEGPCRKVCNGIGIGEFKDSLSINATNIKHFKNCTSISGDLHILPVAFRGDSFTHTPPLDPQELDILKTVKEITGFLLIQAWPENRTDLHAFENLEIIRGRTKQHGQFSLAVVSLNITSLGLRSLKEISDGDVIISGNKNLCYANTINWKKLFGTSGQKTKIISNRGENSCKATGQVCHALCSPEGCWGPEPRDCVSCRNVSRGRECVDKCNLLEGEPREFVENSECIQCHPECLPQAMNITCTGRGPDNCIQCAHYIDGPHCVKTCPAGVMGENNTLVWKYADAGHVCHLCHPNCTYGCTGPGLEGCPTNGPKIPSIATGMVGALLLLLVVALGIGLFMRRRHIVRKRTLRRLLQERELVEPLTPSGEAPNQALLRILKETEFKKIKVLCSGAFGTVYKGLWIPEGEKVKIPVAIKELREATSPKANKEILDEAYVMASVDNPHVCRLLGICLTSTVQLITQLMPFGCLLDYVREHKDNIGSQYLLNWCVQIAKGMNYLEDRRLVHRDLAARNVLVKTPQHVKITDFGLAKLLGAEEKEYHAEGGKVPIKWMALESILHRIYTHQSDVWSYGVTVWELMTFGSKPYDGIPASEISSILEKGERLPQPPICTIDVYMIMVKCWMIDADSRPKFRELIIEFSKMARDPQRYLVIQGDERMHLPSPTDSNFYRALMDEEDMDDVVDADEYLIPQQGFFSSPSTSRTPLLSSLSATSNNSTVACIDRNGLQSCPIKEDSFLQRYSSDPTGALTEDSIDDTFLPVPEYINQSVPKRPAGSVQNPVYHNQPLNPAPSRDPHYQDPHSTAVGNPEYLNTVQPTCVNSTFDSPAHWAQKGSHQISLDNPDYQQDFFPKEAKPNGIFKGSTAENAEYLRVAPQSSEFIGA
Mitogen-activated protein kinase 3, sequence (P27361 whole entry): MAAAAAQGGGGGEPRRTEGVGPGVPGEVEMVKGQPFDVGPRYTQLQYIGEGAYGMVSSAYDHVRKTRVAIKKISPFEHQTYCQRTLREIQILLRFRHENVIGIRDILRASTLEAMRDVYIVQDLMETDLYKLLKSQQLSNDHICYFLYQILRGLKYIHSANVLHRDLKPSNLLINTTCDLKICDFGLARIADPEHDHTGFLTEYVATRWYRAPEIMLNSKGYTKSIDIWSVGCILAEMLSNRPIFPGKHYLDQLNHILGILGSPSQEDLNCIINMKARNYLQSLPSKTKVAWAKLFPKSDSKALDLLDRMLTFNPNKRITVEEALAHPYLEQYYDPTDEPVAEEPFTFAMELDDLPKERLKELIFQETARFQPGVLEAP
SRSF protein kinase 1, sequence (Q96SB4 whole entry): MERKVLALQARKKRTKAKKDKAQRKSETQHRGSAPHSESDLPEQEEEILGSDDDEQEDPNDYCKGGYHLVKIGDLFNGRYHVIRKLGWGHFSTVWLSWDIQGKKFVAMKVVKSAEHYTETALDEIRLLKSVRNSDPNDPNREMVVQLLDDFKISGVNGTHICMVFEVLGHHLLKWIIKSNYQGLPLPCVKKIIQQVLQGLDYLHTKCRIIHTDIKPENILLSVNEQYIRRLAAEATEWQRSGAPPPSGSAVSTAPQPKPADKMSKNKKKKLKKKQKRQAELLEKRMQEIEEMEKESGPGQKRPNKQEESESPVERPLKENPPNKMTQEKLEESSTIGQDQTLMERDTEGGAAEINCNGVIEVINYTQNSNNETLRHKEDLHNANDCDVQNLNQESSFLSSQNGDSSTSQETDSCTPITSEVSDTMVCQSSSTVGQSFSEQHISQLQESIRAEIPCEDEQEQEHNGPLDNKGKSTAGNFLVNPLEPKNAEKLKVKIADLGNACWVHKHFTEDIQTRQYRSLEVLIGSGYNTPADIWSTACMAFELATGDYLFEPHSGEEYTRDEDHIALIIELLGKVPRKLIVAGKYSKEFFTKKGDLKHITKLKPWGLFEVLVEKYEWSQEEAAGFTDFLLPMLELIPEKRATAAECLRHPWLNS

Q: `Cn1cc(-n2cnc3c(NCc4nc5cc(Cl)c(Cl)cc5[nH]4)nc(N4CCOCC4)nc32)cn1` was tested. Which % of inhibition [1] did it give?
A: The % of inhibition was -159%.

Q: For `O=C(NOC[C@H](O)CO)c1ccc(F)c(F)c1Nc1ccc(I)cc1F`, which % of control [2] is on record?
A: The % of control was 86%.

Q: And the % of control [3]?
A: The % of control was 66%.

Q: What about the % of control [4] of the same compound?
A: Its % of control is 100%.

Q: And the % of control [5]?
A: Its % of control is 79%.

Q: What about the % of control [6] of the same compound?
A: The % of control was 77%.

Q: And the % of control [7]?
A: Its % of control is 84%.

Q: Which % of control [8] does the source give for `CNC(=O)Nc1ccc(-c2nc(N3CC4CCC(C3)O4)c3cnn(C4CCC5(CC4)OCCO5)c3n2)cc1` here?
A: The % of control was 82%.

Q: What does the source list for `CC[C@@H]1[C@H](F)C(=O)N[C@@H]1COc1nccc2cc(C(N)=O)c(OC)cc12` [ZIMLOVISERTIB]?
A: % of inhibition [9]: -7.5%; % of inhibition (SRSF protein kinase 1): 0.109%

Q: Which % of inhibition [10] does the source give for `Cc1cc(C)cc([C@@H]2c3cc(C)ccc3NC(=O)CN2C(=O)c2ccc(Br)s2)c1` here?
A: The % of inhibition was 17%.

Q: Which % of control [11] does the source give for `Cc1cc(F)c(C(=O)Nc2cccc(-c3nncn3C(C)C)n2)cc1-n1cnc(C2CC2)c1` here?
A: Its % of control is 97%.

Q: For `CN(C(=O)c1cnn2cccnc12)c1cc2c(cc1N1CCOCC1)C(=O)N(C[C@@H](F)C(C)(C)O)C2`, which dTM [12] is on record?
A: Its dTM is -0.3 K.

Q: Which % of control [13] does the source give for `COCC(=O)NC/C=C/c1ccc2ncnc(Nc3ccc(Oc4ccc(C)nc4)c(C)c3)c2c1` [CP-724714] here?
A: Its % of control is 100%.

Q: `COc1cc(N(C)c2ccnc3ccc(C(F)(F)F)cc23)cc(OC)c1OC` was tested. Which % binding [14] did it give?
A: Its % binding is 100%.

Q: `O[C@H]1CC[C@H](Nc2ncc3nc(Nc4c(F)cc(F)cc4F)n([C@H]4CCOC4)c3n2)CC1` was tested. Which % of control [15] did it give?
A: The % of control was 100%.
